Reference: ChEMBL document CHEMBL1143643, “Synthesis and evaluation of antiplatelet activity of trihydroxychalcone derivatives” (Bioorg Med Chem Lett, 2005)

Key:
Oryctolagus cuniculus [1] = species on record: Oryctolagus cuniculus; assay: In vitro inhibitory effects on arachidonic acid induced rabbit platelet aggregation upon incubation at 37 degree C for 4 minutes; type: functional
Oryctolagus cuniculus [2] = species on record: Oryctolagus cuniculus; assay: In vitro inhibitory effects on collagen induced rabbit platelet aggregation upon incubation at 37 degree C for 4 minutes; type: functional

Row | IC50 (Oryctolagus cuniculus [1]) [µM] | IC50 (Oryctolagus cuniculus [2]) [µM] | SMILES
1 | > 100 | > 100 | CN(C)c1ccc(/C=C/C(=O)c2c(O)cc(O)cc2O)cc1
2 | 28.5 | 37.4 | COc1cc(/C=C/C(=O)c2c(O)cc(O)cc2O)ccc1OCc1ccccc1
